Data taken from US9988379B2, “GPR40 receptor agonist, methods of preparing the same, and pharmaceutical compositions containing the same as an active agent” (LG CHEM, LTD., priority 2012, dated 2018).

The compounds below were run against T1, human GPR40 (Homo sapiens, UniProt O14842) (assay: Induction of Ca2+ (calcium flux assay) using human GPR40 expression cell line). Details: read-out: EC0.5.
T1 construct: expressed in transfected cells; host or cells: CHO-K1
T1 sequence (O14842 whole entry): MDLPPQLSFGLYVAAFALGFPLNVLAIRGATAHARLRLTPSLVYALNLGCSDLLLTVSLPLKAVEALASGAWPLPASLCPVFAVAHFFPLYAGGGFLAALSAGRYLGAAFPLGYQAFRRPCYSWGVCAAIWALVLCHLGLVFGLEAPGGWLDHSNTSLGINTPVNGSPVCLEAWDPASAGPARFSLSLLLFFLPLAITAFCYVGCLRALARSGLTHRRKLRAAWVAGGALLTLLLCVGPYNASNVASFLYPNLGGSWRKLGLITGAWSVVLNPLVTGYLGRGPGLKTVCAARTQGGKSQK
Type: cell-based
Protocol: Evaluation of the Test Compounds for Induction of Ca^2+ Using Human GPR40 Expression Cell Line
The cell line expressing human GPR40 was generated by transfection of the GPR40 expression vector into CHO-K1 cell, and used in the following calcium flux assay.
The cell line was cultured in cell-culture medium (F-12 (Invitrogen) supplemented with 10% (v/v) FBS (Fetal Bovine Serum; Invitrogen), 0.5 mg/ml Geneticin (Invitrogen) and 1% (v/v) Antibiotic-Antimycotic solution (Invitrogen)) under the condition of 5% CO2 and 37° C. For calcium flux assay, the cells were diluted with the cell-culture medium to a concentration of 5×10^5 cells/ml, and the diluted cell suspension was dispensed in amount of 100 μl/well to a 96-well transparent bottom black polystyrene cell culture plate (Corning) and then cultured for 24 hours. The following concentrations of test compounds were added to these cells, and then the changes in intracellular calcium concentration were measured by FlexStation II384 (Molecular Devices). The following solution was prepared before the measurement.
First, a buffer solution for assay was prepared for use in the manufacture of fluorescent dye solution. This buffer solution was prepared by adding 1M HEPES solution (Invitrogen) to HBSS (Hanks' Balanced Salt Solution) (Invitrogen) and then adding 1M NaOH (Nacalai Tesque) to adjust pH to 7.4. Then the fluorescent dye solution was prepared according to the manufacturer's instruction attached to Calcium 5 Assay Kit (Molecular Devices), and the final DMSO concentration was adjusted to 2%.
The fluorescent dye solution was added in an amount of 100 μl/well to supernatant of the cell culture plate cultured for 24 hours. The plate was cultured for 1 hour under the condition of 5% CO2 and 37° C. so that the fluorescent dye was inserted into the cell.
Test compounds (i.e., the compounds prepared in the Examples) dissolved in dimethyl sulfoxide (DMSO ACROS) were diluted 200-fold in the buffer solution for assay to prepare compound solutions corresponding to the respective concentrations. […] 50 μl of the prepared sample solutions was added to each well of 96-well polypropylene plates (NUNC), and thereby a compound plate was prepared. Finally, the compound plate and the cell culture plate cultured for 1 hour with the fluorescent dye were placed in FlexStation II384.
After the above pre-treatment, the change in the intracellular calcium concentration when each concentration of the test compound solutions was added at 50 μl was measured by FlexStation II^384.
Then, the relative activity values depending on the concentration of the compound were plotted using Prism 4 software (GraphPad) to calculate the EC0.5 value.
Compound `Cc1c(COc2ccc(CCC(=O)O)cc2)ccc2ccn(-c3ccc(F)cc3)c12` [Example 14, 3-{4-[1-(4-fluoro-phenyl)-7-methyl-1H-indol-6-ylmethoxy]-phenyl}-propanoic acid] has an EC50 of 30 nM. Work on `CC#C[C@@H](CC(=O)O)c1ccc(OCc2ccc3c(cnn3C(C)C)c2)cc1` [Example 116, (S)-3-[4-(1-isopropyl-1H-indazol-5-ylmethoxy)-phenyl]-hex-4-ynoic acid] yielded an EC50 of 1 to 50 nM. For `CC#C[C@@H](CC(=O)O)c1ccc(OCc2ccc3ccn(Cc4ccc(OC)cc4)c3c2C)cc1` [Example 28, (S)-3-{4-[1-(4-methoxy-benzyl)-7-methyl-1H-indol-6-ylmethoxy]-phenyl}-hex-4-ynoic acid], the EC50 was 10 nM. `CC#C[C@@H](CC(=O)O)c1ccc(OCc2ccc3cnn(Cc4cnc(C)cn4)c3c2)cc1` [Example 73, (S)-3-{4-[1-(5-methyl-pyrazin-2-ylmethyl)-1H-indazol-6-ylmethoxy]-phenyl}-hex-4-ynoic acid] showed an EC50 of 50 to 500 nM. `CC#C[C@@H](CC(=O)O)c1ccc(OCc2ccc3c(C)nn(CC(C)C)c3c2)cc1` [Example 178, (S)-3-[4-(1-isobutyl-3-methyl-1H-indazol-6-ylmethoxy)-phenyl]-hex-4-ynoic acid] was tested, and the EC50 was 1 to 50 nM. For `O=C(O)CCc1ccc(NCc2ccc3ccn(-c4ccsc4)c3c2Cl)cc1` [Example 8, 3-{4-[(7-chloro-1-thiophen-3-yl-1H-indol-6-ylmethyl)-amino]-phenyl}-propanoic acid], the EC50 was ≥ 500 nM. `Cc1cnc(Cn2ccc3ccc(COc4ccc([C@H](CC(=O)O)c5ccon5)cc4)c(C)c32)cn1` [Example 92, (S)-3-isoxazol-3-yl-3-{4-[7-methyl-1-(5-methyl-pyrazin-2-ylmethyl)-1H-indol-6-ylmethoxy]-phenyl}-propanoic acid] gave an EC50 of 1 to 50 nM. `CC#C[C@@H](CC(=O)O)c1ccc(OCc2ccc3c(F)cn(Cc4ccccc4)c3c2C)cc1` [Example 62, (S)-3-[4-(1-benzyl-3-fluoro-7-methyl-1H-indol-6-ylmethoxy)-phenyl]-hex-4-ynoic acid] was tested, and the EC50 was 50 to 500 nM. For `CC#C[C@@H](CC(=O)O)c1ccc(OCc2cccc3c2c(F)nn3CC(C)C)cc1` [Example 189, (S)-3-[4-(3-fluoro-1-isobutyl-1H-indazol-4-ylmethoxy)-phenyl]-hex-4-ynoic acid], the EC50 was 1 to 50 nM. `CC#C[C@@H](CC(=O)O)c1ccc(OCc2ccc3c(ccn3Cc3ccccc3)c2)cc1` [Example 123, (S)-3-[4-(1-benzyl-1H-indol-5-ylmethoxy)-phenyl]-hex-4-ynoic acid] showed an EC50 of 1 to 50 nM. With `CC#C[C@@H](CC(=O)O)c1ccc(OCc2ccc3ccn(Cc4ccc(C)nc4)c3c2C)cc1` [Example 81, (S)-3-{4-[7-methyl-1-(6-methyl-pyridin-3-ylmethyl)-1H-indol-6-ylmethoxy]-phenyl}-hex-4-ynoic acid] the EC50 was 1 to 50 nM. Work on `CC#C[C@@H](CC(=O)O)c1ccc(OCc2ccc3cnn(CC4CCCC4)c3c2)cc1` [Example 173, (S)-3-[4-(1-cyclopentylmethyl-1H-indazol-6-ylmethoxy)-phenyl]-hex-4-ynoic acid] yielded an EC50 of 1 to 50 nM. `O=C(O)CC1COc2cc(OCc3ccc4cn(Cc5ccccc5)nc4c3)ccc21` (stereo not shown) [Example 113, [6-(2-benzyl-2H-indazol-6-ylmethoxy)-2,3-dihydro-benzofuran-3-yl]-acetic acid] gave an EC50 of 9100 nM. In the case of `CC#C[C@@H](CC(=O)O)c1ccc(OCc2ccc3c(c2)nnn3Cc2ccccc2)cc1` [Example 124, (S)-3-[4-(1-benzyl-1H-benzotriazol-5-ylmethoxy)-phenyl]-hex-4-ynoic acid], the EC50 is reported as 50 nM. Work on `COC(CC(=O)O)c1ccc(OCc2ccc3c(cnn3Cc3ccccc3)c2)cc1` (stereo not shown) [Example 155, 3-[4-(1-benzyl-1H-indazol-5-ylmethoxy)-phenyl]-3-methoxy-propanoic acid] yielded an EC50 of 50 to 500 nM. `CC#C[C@@H](CC(=O)O)c1ccc(OCc2ccc3c(cnn3Cc3ccccc3)c2)cc1` [Example 111, (S)-3-[4-(1-benzyl-1H-indazol-5-ylmethoxy)-phenyl]-hex-4-ynoic acid] showed an EC50 of 1 to 50 nM. With `CC#C[C@@H](CC(=O)O)c1ccc(OCc2ccc3cn(Cc4ccncn4)nc3c2)cc1` [Example 76, (S)-3-[4-(2-pyrimidin-4-ylmethyl-2H-indazol-6-ylmethoxy]-phenyl}-hex-4-ynoic acid] the EC50 was ≥ 500 nM. Compound `CC#C[C@@H](CC(=O)O)c1ccc(OCc2ccc3ccn(Cc4cccc(C(F)(F)F)c4)c3c2C)cc1` [Example 43, (S)-3-{4-[7-methyl-1-(3-trifluoromethyl-benzyl)-1H-indol-6-ylmethoxy]-phenyl}-hex-4-ynoic acid] has an EC50 of 50 to 500 nM. `Cc1cc(COc2ccc3c(c2)OCCC3CC(=O)O)cc2cnn(CC(C)C)c12` (stereo not shown) [Example 131, [7-(1-isobutyl-7-methyl-1H-indazol-5-ylmethoxy)-chroman-4-yl]-acetic acid] showed an EC50 of 50 to 500 nM. Compound `CC#C[C@@H](CC(=O)O)c1ccc(OCc2cc(C)c3nn(CC(C)C)cc3c2)cc1` [Example 140, (S)-3-[4-(2-isobutyl-7-methyl-2H-indazol-5-ylmethoxy)-phenyl]-hex-4-ynoic acid] has an EC50 of 4 nM. `CC#C[C@@H](CC(=O)O)c1ccc(OCc2ccc3cnn(Cc4cccnc4)c3c2C)cc1` [Example 226, (S)-3-[4-(7-methyl-1-pyridin-3-ylmethyl-1H-indazol-6-ylmethoxy)-phenyl]-hex-4-ynoic acid] showed an EC50 of 9 nM. For `CC#C[C@@H](CC(=O)O)c1ccc(OCc2ccc3cn(Cc4cccnc4)nc3c2)cc1` [Example 80, (S)-3-[4-(2-pyridin-3-ylmethyl-2H-indazol-6-ylmethoxy)-phenyl]-hex-4-ynoic acid], the EC50 was ≥ 500 nM. Work on `CC#C[C@@H](CC(=O)O)c1ccc(OCc2cnc3c(ccn3Cc3ccccc3)c2)cc1` [Example 143, (S)-3-[4-(1-benzyl-1H-pyrrolo[2,3-b]pyridin-5-ylmethoxy)-phenyl]-hex-4-ynoic acid] yielded an EC50 of 1 to 50 nM. `CC#C[C@@H](CC(=O)O)c1ccc(OCc2cccc3c(CCCC)nn(C)c23)cc1` [Example 206, (S)-3-[4-(3-butyl-1-methyl-1H-indazol-7-ylmethoxy)-phenyl]-hex-4-ynoic acid] was tested, and the EC50 was 1 to 50 nM. Compound `CC#C[C@@H](CC(=O)O)c1ccc(OCc2ccc3ccn(Cc4ccccc4)c3c2C)cc1` [Example 25, (S)-3-[4-(1-benzyl-7-methyl-1H-indol-6-ylmethoxy)-phenyl]-hex-4-ynoic acid] has an EC50 of 20 nM. `O=C(O)CCc1ccc(NCc2ccc3ccn(CCc4ccccc4)c3c2)cc1` [Example 4, 3-{4-[(1-phenethyl-1H-indol-6-ylmethyl)-amino]-phenyl}-propanoic acid] gave an EC50 of 50 nM. In the case of `O=C(O)CCc1ccc(OCc2cccc3c2ccn3Cc2ccccc2)cc1F` [Example 54, 3-[4-(1-benzyl-1H-indol-4-ylmethoxy)-2-fluoro-phenyl]-propanoic acid], the EC50 is reported as 50 to 500 nM. In the case of `CC#C[C@@H](CC(=O)O)c1ccc(OCc2ccc3cc(CCOC)n(Cc4ccccc4)c3c2)cc1` [Example 34, (S)-3-{4-[1-benzyl-2-(2-methoxy-ethyl)-1H-indol-6-ylmethoxy]-phenyl}-hex-4-ynoic acid], the EC50 is reported as 40 nM. `CC#C[C@@H](CC(=O)O)c1ccc(OCc2ccc3c(cnn3C3CCCC3)c2)cc1` [Example 164, (S)-3-[4-(1-cyclopentyl-1H-indazol-5-ylmethoxy)-phenyl]-hex-4-ynoic acid] showed an EC50 of 1 to 50 nM. `CC#C[C@@H](CC(=O)O)c1ccc(OCc2cccc3c2ccn3-c2ccc(F)cc2C)cc1` [Example 32, (S)-3-{4-[1-(4-fluoro-2-methyl-phenyl)-1H-indol-4-ylmethoxy]-phenyl}-hex-4-ynoic acid] showed an EC50 of 40 nM. Compound `CC#C[C@@H](CC(=O)O)c1ccc(OCc2ccc3cnn(CC(C)C)c3c2C)cc1` [Example 211, (S)-3-[4-(1-isobutyl-7-methyl-1H-indazol-6-ylmethoxy)-phenyl]-hex-4-ynoic acid] has an EC50 of 4 nM. `CC#C[C@@H](CC(=O)O)c1ccc(OCc2ccc3ccn(Cc4c(F)cccc4F)c3c2C)cc1` [Example 33, (S)-3-{4-[1-(2,6-difluoro-benzyl)-7-methyl-1H-indol-6-ylmethoxy]-phenyl}-hex-4-ynoic acid] gave an EC50 of 20 nM. With `CC#C[C@@H](CC(=O)O)c1ccc(OCc2ccc3ccn(Cc4ccncn4)c3c2C)cc1` [Example 61, (S)-3-[4-(7-methyl-1-pyrimidin-4-ylmethyl-1H-indol-6-ylmethoxy)-phenyl]-hex-4-ynoic acid] the EC50 was 1 to 50 nM. With `O=C(O)CCc1ccc(NCc2ccc3ccn(Cc4ccccc4)c3c2Cl)cc1` [Example 7, 3-{4-[(1-benzyl-7-chloro-1H-indol-6-ylmethyl)-amino]-phenyl}-propanoic acid] the EC50 was 20 nM.
